# ChEMBL document CHEMBL5053491, “Rational designed highly sensitive NQO1-activated near-infrared fluorescent probe combined with NQO1 substrates in vivo: An innovative strategy for NQO1-overexpressing cancer theranostics” (Eur J Med Chem, 2021)
# How the values were obtained:
# [1] = target: NAD(P)H dehydrogenase [quinone] 1 (Homo sapiens) (UniProt P15559); assay: Substrate activity at recombinant human NQO1 assessed as enzyme activity by measuring oxidation of NADPH incubated for 5 mins measured per micromol of NADPH by NADPH recycling assay
# A549 [2] = assay: Antitumor activity against human A549 cells xenografted in BALB/c nude mouse assessed as fluorescence intensity at 30 mg/kg, ip administered for 21 days; assay type: functional; settings: time 21 day
# [3] = Drug uptake in BALB/c nude mouse infected with human A549 cells at 5 mg/kg, iv measured upto 15 mins by fluorescence spectrophotometric analysis; assay type: ADME, organism-based; settings: in vivo, 0.25 h
# [4] = Stability of compound in rat plasma assessed as compound remaining at 37 degree C measured after 24 hrs by HPLC analysis; assay type: ADME, cell-free
# [5] = Drug uptake in NQO1 rich human A549 cells at 10 uM incubated for 20 mins by confocal microscopy; assay type: ADME, cell-based; settings: a549, 20 min
# [6] = Water solubility of compound by HPLC analysis; assay type: physicochemical
# A549 [7] = assay: Cytotoxicity against human A549 cells assessed as growth inhibition measured after 72 hrs by MTT assay; assay type: functional; design: scale not given: the % may be the effect or the level left
# [8] = Stability of compound in human plasma assessed as compound remaining at 37 degree C measured after 24 hrs by HPLC analysis; assay type: ADME, cell-free
# [9] = Drug uptake in NQO1-deficient human NCI-H596 cells at 10 uM incubated for 20 mins by confocal microscopy; assay type: ADME, cell-based; settings: nci-h596, 20 min
# [10] = Stability of compound in PBS at pH 4 to 9 assessed as compound remaining at 37 degree C measured after 24 hrs by HPLC analysis; assay type: physicochemical; settings: buffer, pH 4, 24 h
# [11] = Stability of compound in mouse plasma assessed as compound remaining at 37 degree C measured after 24 hrs by HPLC analysis; assay type: ADME, cell-free
# A549 [12] = assay: Antitumor activity against human A549 cells xenografted in BALB/c nude mouse assessed as tumor volume change at 30 mg/kg, ip administered for 21 days; assay type: functional; settings: time 21 day
# A549 [13] = assay: Antitumor activity against human A549 cells xenografted in BALB/c nude mouse assessed as tumor inhibition rate at 30 mg/kg, ip administered for 21 days; assay type: functional; design: scale not given: the % may be the effect or the level left; settings: time 21 day
# Sequence of NAD(P)H dehydrogenase [quinone] 1 (Homo sapiens) (P15559 whole entry): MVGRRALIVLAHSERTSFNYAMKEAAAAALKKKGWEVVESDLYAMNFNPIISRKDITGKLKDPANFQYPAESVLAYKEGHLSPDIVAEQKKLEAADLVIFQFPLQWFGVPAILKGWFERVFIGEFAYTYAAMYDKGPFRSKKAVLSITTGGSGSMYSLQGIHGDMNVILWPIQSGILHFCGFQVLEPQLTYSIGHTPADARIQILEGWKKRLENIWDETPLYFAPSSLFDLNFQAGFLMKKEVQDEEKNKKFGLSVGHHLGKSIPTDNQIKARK
smiles,measurement,setting,value
O=C(O)CCC1=CC(=O)c2ccccc2C1=O,Activity,[1],900 µmol/min
O=c1[nH]cc(F)c(=O)[nH]1 [FLUOROURACIL],Activity,A549 [2],75.7%
CC1=C(C)C(=O)C(C(C)(C)CC(=O)N(C)c2ccc(COC(=O)N3c4ccc(N(C)C)cc4Sc4cc(N(C)C)ccc43)cc2)=C(C)C1=O,Drug uptake,[3],Not Active
CC1=C(C(C)(C)CC(=O)N(C)c2ccc(COC(=O)N3c4ccc(N(C)C)cc4Sc4cc(N(C)C)ccc43)cc2)C(=O)c2ccccc2C1=O,Stability,[4],Stable
same,Drug uptake,[5],Active
same,solubility,[6],6.5 µg/mL
same,Activity,A549 [7],>80%
same,Drug uptake,[3],Active
same,Stability,[8],Stable
same,Drug uptake,[9],Not Active
same,Activity,A549 [2],75.6%
same,Stability,[10],Stable
same,Stability,[11],Stable
CC(C)(CC(=O)O)C1=CC(=O)c2ccccc2C1=O,Activity,[1],1220 µmol/min
CC1=C(CCC(=O)O)C(=O)c2ccccc2C1=O,Activity,[1],1080 µmol/min
CC1=C(C)C(=O)C(C(C)(C)CC(=O)O)=C(C)C1=O,Activity,[1],1070 µmol/min
Cc1cc2c(cc1C)-c1oc(CN3CCN(C)CC3)c(C)c1C(=O)C2=O,Activity,A549 [12],77%
same,Activity,A549 [13],79.8%
CC1(C)CCC2=C(O1)c1ccccc1C(=O)C2=O [LAPACHONE],Activity,A549 [12],69.1%
same,Activity,A549 [13],67.7%
CC1=C(C(C)(C)CC(=O)O)C(=O)c2ccccc2C1=O,Activity,[1],1480 µmol/min
